Assay results: the supplement of paper PMC11208160

Assay: recombinant UMI read abundance after kanamycin selection (control-corrected) (log10(CPM+1)); higher = more efficient recombination; extreme values may be limits of the assay; sequences stand for … in AGTGCAGAGAAAATCGGCCAGTTTTCTCTGCCTGCAGTCCGCATGCCGTGGGACCCCTTGGGTTCTAACCTGTTGCCTAGATTTATGCAGCGGACTGCCTTTCTCCCAAAGTGATAAACCGG…AGGTTGGTTTCACT; site = the 11-nt donor
Summary of the method: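 In a pooled Escherichia coli screen for the IS621 bridge recombinase, donor and donor-binding-loop pairs were each placed with a 12-nt UMI on a plasmid bearing a promoterless kanamycin gene. This library was co-electroporated with a target plasmid encoding a fixed target and T7-inducible recombinase, and cells were plated either on IPTG (0.07 mM) plus kanamycin or without selection, in two replicates each. Recombinant UMIs were PCR-amplified across the donor–target junction and sequenced, and counts were converted to CPM, averaged over replicates, scaled by control-derived factors and reported as log10(CPM+1).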
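Further: IS621 bridge recombinase in Escherichia coli cells against a fixed T5 target plasmid.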

Going from “AGGAAGACATGGACCGGTTTTCCCGGTAATCCGTATTTGCA (site CGGAAGCCTTG)” to “AGGAAGACATGGACCGGTTTTCCCGGTAATCCGTATTTGCA (site CGGAGGACTTG)”, the “recombinant UMI read abundance (log10)” value rises from 0 to 0.505.

Compared with “AGGAAGACATGGACCGGTTTTCCCGGTAATCCGTATTTGCA (site CGGTAGACTTG)”, “AGGAAGACATGGACCGGTTTTCCCGGTAATCCGTATTTGCA (site CGTAAGACTTG)” is lower in “recombinant UMI read abundance (log10)” value: 1.27 for the first, 0.977 for the second.

Compared with “AGGAAGACATGGACCGGTTTTCCCGGTAATCCGTATTTGCA (site GGCAAGACTTG)”, “AGGAAGACATGGACCGGTTTTCCCGGTAATCCGTATTTGCA (site GGGAAGACTAG)” is lower in “recombinant UMI read abundance (log10)” value: 2.22 for the first, 0 for the second.

Going from “AGGAAGACATGGACCGGTTTTCCCGGTAATCCGTATTTGCA (site GGGAAGACTTC)” to “AGGAAGACATGGACCGGTTTTCCCGGTAATCCGTATTTGCA (site GGGAAGACTTG)”, the “recombinant UMI read abundance (log10)” value rises from 0 to 0.614.

“AGGAAGACATGGACCGGTTTTCCCGGTAATCCGTATTTGCA (site GGGAAGGCTTG)” and “AGGAAGACATGGACCGGTTTTCCCGGTAATCCGTATTTGCA (site GGGAATACTTG)” are the same in “recombinant UMI read abundance (log10)” value: 0 for the first, 0 for the second.

Compared with “AGGAAGACATGGACCGGTTTTCCCGGTAATCCGTATTTGCA (site GGGACGACTTG)”, “AGGAAGACATGGACCGGTTTTCCCGGTAATCCGTATTTGCA (site GGGCAGACTTG)” is higher in “recombinant UMI read abundance (log10)” value: 0.00563 for the first, 0.837 for the second.

First: AGGAAGACATGGACCGGTTTTCCCGGTAATCCGTATTTGCA (site GTGAAGACTTG)
Second: AGGAAGACATGGACCGGTTTTCCCGGTAATCCGTATTTGCA (site TCGAAGACTTG)
The “recombinant UMI read abundance (log10)” value of the first is lower: 0 for the first, 1.81 for the second.

First: AGGAAGACATGGACCGGTTTTCCCGGTAATCCGTATTTGCA (site TGAAAGACTTG)
Second: AGGAAGACATGGACCGGTTTTCCCGGTAATCCGTATTTGCA (site TGGAAAACTTG)
The “recombinant UMI read abundance (log10)” value of the first is higher: 1.06 for the first, 0.756 for the second.

Going from “AGGAAGACATGGACCGGTTTTCCCGGTAATCCGTATTTGCA (site TGGAAGACTCG)” to “AGGAAGACATGGACCGGTTTTCCCGGTAATCCGTATTTGCA (site TGGAAGACTTA)”, the “recombinant UMI read abundance (log10)” value rises from 0.00521 to 0.696.

First: AGGAAGACATGGACCGGTTTTCCCGGTAATCCGTATTTGCA (site TGGAAGACTTG)
Second: AGGAAGACATGGACCGGTTTTCCCGGTAATCCGTATTTGCA (site TGGAAGTCTTG)
The “recombinant UMI read abundance (log10)” value of the first is higher: 1.16 for the first, 0 for the second.

“AGGAAGACATGGACCGGTTTTCCCGGTAATCCGTATTTGCA (site TGGATGACTTG)” and “AGGAAGACATGGACCGGTTTTCCCGGTAATCCGTATTTGCA (site TGGGAGACTTG)” are within 0.2 log units of each other in “recombinant UMI read abundance (log10)” value: 0.00459 for the first, 0 for the second.

First: AGGAAGACATGGACCGGTTTTCCCGGTAATCCGTATTTGTA (site AGGAAGACTTA)
Second: AGGAAGACATGGACCGGTTTTCCCGGTAATCCGTATTTGTA (site AGGAAGACTTC)
The “recombinant UMI read abundance (log10)” value of the first is higher: 2.74 for the first, 0.521 for the second.

First: AGGAAGACATGGACCGGTTTTCCCGGTAATCCGTATTTGTA (site AGGAAGACTTG)
Second: AGGAAGACATGGACCGGTTTTCCCGGTAATCCGTATTTGTA (site AGGAAGACTTT)
The “recombinant UMI read abundance (log10)” value of the first is higher: 2.11 for the first, 1.8 for the second.

Compared with “AGGAAGGCATGGACCGGTTTTCCCGGTAATCCGTATTTGCA (site AGGAAGACTTG)”, “AGGAAGGCATGGACCGGTTTTCCCGGTAATCCGTATTTGCA (site AGGAAGCCTTG)” is lower in “recombinant UMI read abundance (log10)” value: 1.98 for the first, 0 for the second.

Going from “AGGAAGGCATGGACCGGTTTTCCCGGTAATCCGTATTTGCA (site AGGAAGGCTTG)” to “AGGAAGGCATGGACCGGTTTTCCCGGTAATCCGTATTTGCA (site AGGAAGTCTTG)”, the “recombinant UMI read abundance (log10)” value falls from 2.41 to 1.82.

Going from “AGGAATGCATGGACCGGTTTTCCCGGTAATCCGTATTTGCA (site AGGAAGACTTG)” to “AGGAATGCATGGACCGGTTTTCCCGGTAATCCGTATTTGCA (site AGGAATGCTTG)”, the “recombinant UMI read abundance (log10)” value rises from 0 to 1.74.

Going from “AGGACGGCATGGACCGGTTTTCCCGGTAATCCGTATTTGCA (site AGGAAGACTTG)” to “AGGACGGCATGGACCGGTTTTCCCGGTAATCCGTATTTGCA (site AGGACGGCTTG)”, the “recombinant UMI read abundance (log10)” value rises from 0 to 2.23.

Compared with “AGGACTACATGGACCGGTTTTCCCGGTAATCCGTATTTGAG (site AGGACTACTAT)”, “AGGACTACATGGACCGGTTTTCCCGGTAATCCGTATTTGAG (site AGGACTACTCT)” is higher in “recombinant UMI read abundance (log10)” value: 0.00837 for the first, 1.54 for the second.

First: AGGACTACATGGACCGGTTTTCCCGGTAATCCGTATTTGAG (site AGGACTACTGT)
Second: AGGACTACATGGACCGGTTTTCCCGGTAATCCGTATTTGAG (site AGGACTACTTT)
The “recombinant UMI read abundance (log10)” value of the first is lower: 0 for the first, 0.493 for the second.

Going from “AGGACTACATGGACCGGTTTTCCCGGTAATCCGTATTTGAT (site AGGACTACTAT)” to “AGGACTACATGGACCGGTTTTCCCGGTAATCCGTATTTGAT (site AGGACTACTCT)”, the “recombinant UMI read abundance (log10)” value falls from 1.77 to 0.00954.

“AGGACTACATGGACCGGTTTTCCCGGTAATCCGTATTTGAT (site AGGACTACTGT)” and “AGGACTACATGGACCGGTTTTCCCGGTAATCCGTATTTGAT (site AGGACTACTTT)” are within 0.2 log units of each other in “recombinant UMI read abundance (log10)” value: 0 for the first, 0.00536 for the second.

Compared with “AGGACTACATGGACCGGTTTTCCCGGTAATCCGTATTTGCT (site AGGACTACTAG)”, “AGGACTACATGGACCGGTTTTCCCGGTAATCCGTATTTGTC (site AGGACTACTGA)” is lower in “recombinant UMI read abundance (log10)” value: 2.5 for the first, 2 for the second.

“AGGACTACATGGACCGGTTTTCCCGGTAATCCGTATTTGTC (site AGGACTACTGC)” and “AGGACTACATGGACCGGTTTTCCCGGTAATCCGTATTTGTC (site AGGACTACTGG)” are the same in “recombinant UMI read abundance (log10)” value: 0 for the first, 0 for the second.

First: AGGACTACATGGACCGGTTTTCCCGGTAATCCGTATTTGTC (site AGGACTACTGT)
Second: AGGAGCACATGGACCGGTTTTCCCGGTAATCCGTATTTGCA (site AGGAAGACTTG)
The “recombinant UMI read abundance (log10)” value of the first is higher: 1.37 for the first, 0 for the second.

First: AGGAGCACATGGACCGGTTTTCCCGGTAATCCGTATTTGCA (site AGGAGCACTTG)
Second: AGGAGGCCATGGACCGGTTTTCCCGGTAATCCGTATTTGAG (site AGGAGGCCTCT)
The “recombinant UMI read abundance (log10)” value of the first is higher: 2.37 for the first, 0.233 for the second.

Compared with “AGGATCTCATGGACCGGTTTTCCCGGTAATCCGTATTTGTG (site AGGATCTCTCA)”, “AGGATTTCATGGACCGGTTTTCCCGGTAATCCGTATTTGCG (site AGGATTTCTCG)” is lower in “recombinant UMI read abundance (log10)” value: 2.92 for the first, 1.32 for the second.

Going from “AGGCAAACATGGACCGGTTTTCCCGGTAATCCGTATTTGTA (site AGGCAAACTTA)” to “AGGCAGACATGGACCGGTTTTCCCGGTAATCCGTATTTGCA (site AGGAAGACTTG)”, the “recombinant UMI read abundance (log10)” value falls from 1.9 to 0.346.

First: AGGCAGACATGGACCGGTTTTCCCGGTAATCCGTATTTGCA (site AGGCAGACTTG)
Second: AGGCAGACATGGACCGGTTTTCCCGGTAATCCGTATTTGCA (site AGGGAGACTTG)
The “recombinant UMI read abundance (log10)” value of the first is higher: 2.49 for the first, 0.0572 for the second.

Compared with “AGGCAGACATGGACCGGTTTTCCCGGTAATCCGTATTTGCA (site AGGTAGACTTG)”, “AGGCAGACATGGACCGGTTTTCCCGGTAATCCGTATTTGCT (site AGGAAGACTTG)” is lower in “recombinant UMI read abundance (log10)” value: 0.965 for the first, 0 for the second.

Going from “AGGCAGACATGGACCGGTTTTCCCGGTAATCCGTATTTGCT (site AGGCAGACTAG)” to “AGGCCGGCATGGACCGGTTTTCCCGGTAATCCGTATTTGGC (site AGGCCGGCTGC)”, the “recombinant UMI read abundance (log10)” value falls from 2.13 to 1.07.

“AGGCCGGCATGGACCGGTTTTCCCGGTAATCCGTATTTGGC (site CGGCCGGCTGC)” and “AGGCCGGCATGGACCGGTTTTCCCGGTAATCCGTATTTGGC (site GGGCCGGCTGC)” are the same in “recombinant UMI read abundance (log10)” value: 0 for the first, 0 for the second.

Going from “AGGCCGGCATGGACCGGTTTTCCCGGTAATCCGTATTTGGC (site TGGCCGGCTGC)” to “AGGCCTACATGGACCGGTTTTCCCGGTAATCCGTATTTGAC (site AGGACTACTGT)”, the “recombinant UMI read abundance (log10)” value rises from 0 to 0.528.

Compared with “AGGCCTACATGGACCGGTTTTCCCGGTAATCCGTATTTGAC (site AGGCCTACTGT)”, “AGGCCTACATGGACCGGTTTTCCCGGTAATCCGTATTTGAC (site AGGGCTACTGT)” is lower in “recombinant UMI read abundance (log10)” value: 2.67 for the first, 0 for the second.

Going from “AGGCCTACATGGACCGGTTTTCCCGGTAATCCGTATTTGAC (site AGGTCTACTGT)” to “AGGCGTTCATGGACCGGTTTTCCCGGTAATCCGTATTTGTG (site AGGCGTTCTCA)”, the “recombinant UMI read abundance (log10)” value rises from 0 to 1.09.
